{"source": "patent US10076511B2", "about": "“Bisamide derivative of dicarboxylic acid as an agent for stimulating tissue regeneration and recovery of diminished tissue function” (TREAMID GmbH, priority 2015, dated 2018)", "key": {"male C57BL/6 mice [1]": {"test_system": "male C57BL/6 mice", "assay": "Cachexia induced by Lewis lung carcinoma", "type": "in vivo, mouse", "details": "Day 28; Treamid 10 mg/kg intragastrically from Day 15", "experimental": "Cachexia developed in male C57Bl/6 mice when simulating hematogenously metastasizing Lewis lung carcinoma (LLC). Tumor cells were injected once subcutaneously into the mice at a concentration of 5×10^6 in 0.1 ml of physiological saline (Yu-Chou T., Samuel K. K., I-Lu L. et al. Preclinical Investigation of the Novel Histone Deacetylase Inhibitor AR-42 in the Treatment of Cancer-Induced Cachexia//JNCI J Natl Cancer Inst (2015) 107(12)).\nThe day of the injection of tumor cells was taken as Day 1 of the experiment. Treamid was administered at a dose of 10 mg/kg intragastrically once daily, every day from Day 15 to […]. The animals were weighed one day before the introduction of tumor cells (Day 0) and on Day 28 of the experiment. On Day 28, the animals were euthanized in a CO2 chamber, and blood was collected. The level of free testosterone was determined in the blood serum by enzyme immunoassay."}, "[2]": {"test_system": "precursors for spermatogenic tissue", "assay": "Growth of colonies from CFU-Sp with in vitro addition of Treamid", "type": "cell-based, rat", "details": "Cells of the testes of intact rats", "experimental": "The precursor cells of the studied organ were cultured by using an underlayer (represented by the cells of the adherent fraction) prepared in advance in a 96-well plate, as described above.\nFurther, a nonadherent cell fraction of spermatogenic tissue was isolated from the two groups of animals (intact animals and animals received Paclitaxel intravenously 24 hours prior to the study) and was transferred to the resulting underlayer in complete culture medium (80% DMEM, 20% FCS, L-glutamine, antibiotics, heparin) at a concentration of 2×10^5/ml. Prior to the incubation in the complete culture medium, Treamid was added at a concentrations of 1 ng/ml, 3 ng/ml, 10 ng/ml, 30 ng/ml, 100 ng/ml, 300 ng/ml and 1000 ng/ml. The incubation lasted for 7 days in a CO2 incubator at 37° C., 5% CO2 and 100% air humidity. After the incubation, the number of colony-forming units, spermatogenic (CFU-Sp)—clusters of more than 30 cells of round shape and of various diameters—was counted.\nThe effectiveness of Treamid was estimated by a significant increase in the number of cells giving rise to CFU-Sp in the culture with the addition of the test compound, compared to that in the control.\nThe direct action of Treamid on the precursors for spermatogenic tissue was studied in vitro by addition of Treamid to the cell culture at concentrations of 1, 30, 100, and 1000 ng/ml."}, "male C57BL/6 mice [3]": {"test_system": "male C57BL/6 mice", "assay": "Fertility of male mice on a metabolic syndrome model", "type": "in vivo, mouse", "experimental": "Metabolic disorders were simulated as follows: on Day 2 after birth, male C57Bl/6 mice were injected with streptozotocin at a dose of 200 mg/kg, once, subcutaneously in the withers area, and the volume of the injected solution was 30 μl. From week 4 after birth, the animals were transferred to a high-fat diet. For this purpose, the used feed was enriched with heavy saturated fats (30% fat) (Siff EF R/M with 30% Fat Cat No. E15116-34, Germany). The animals were held on the high-fat diet for 42 days (from Day 28 to Day 70 of the study). Treamid was administered at a dose of 10 mg/kg intragastrically once daily, every day from Day 49 to Day 80 of the experiment. The control animals received the equivalent volume of a solvent, instead of the test compound.\nThe fertility of the males was estimated as follows: intact females were placed to the males of the experimental groups in a ratio of 1:2 for a period of from Day 70 to Day 80 of the study. During this period, the males of the experimental group continued to be administered intragastrically Treamid once daily at a dose of 10 mg/kg.\nAt the end of the mating period, on Day 80 of the study, the males were euthanized in a CO2 chamber. The blood of the animals was taken and analyzed for serum levels of free testosterone by enzyme immunoassay. Euthanasia was performed in the morning hours from 9:30 to 11:00.\nThe females were sacrificed in the CO2 chamber on Day 18 of pregnancy. The fetuses in the uterus were examined. The fertility index (FI) was calculated to assess fertility: FI=number of fertilized females/number of females placed with males×100%."}, "male rats": {"test_system": "male rats", "type": "in vivo, rat", "details": "Day 65", "experimental": "The latter was simulated by a single injection of cytostatic drug Paclitaxel (Mitotax, Dr. Reddy's, India) to male rats (3 months of age). The choice of the drug was due to the fact that it is one of the medications that damage the precursors of spermatogenesis—stem cells.\nPaclitaxel was administered to the animals of the control and test groups once intravenously at the maximum tolerated dose of 7.6 mg/kg. Treamid was administered to the animals of the experimental groups intragastrically at a dose of 5 mg/kg in the form of a suspension in 2% starch mucus for 15 days a month after the administration of Paclitaxel. The control animals received an equivalent volume of the solvent (2% starch mucus), instead of the test compound.\nThe colony-stimulating activity of the cells of the microenvironment of spermatogenic tissue (production of humoral regulators of spermatogenesis by Sertoli cells) was determined as follows. The above-described procedure was used to prepare a testis homogenate from which an adherent fraction of cells was isolated. The adherent cells were cultured for 24 hours in complete culture medium at 37° C., 5% CO2 and 100% air humidity. A day later, the supernatant was collected, which was stored at a temperature of […]. The level of humoral factors of spermatogenesis in the supernatant was tested by the test system of CFU-Sp of the testes of intact rats. […]"}}}
{"smiles": "O=C(CCCC(=O)NCCc1ncc[nH]1)NCCc1ncc[nH]1", "note": "[Treamid]", "values": [{"measurement": "Body weight, including the subtraction of the tumor weight", "setting": "male C57BL/6 mice [1]", "result": "23.8 ± 0.57", "unit": "g"}, {"measurement": "The free testosterone level (pg/ml) in the blood serum", "setting": "male C57BL/6 mice [1]", "result": "3.2 ± 0.3*• pg/ml"}, {"measurement": "CFU-Sp per 4 × 10^4 nuclears", "setting": "[2]; Treamid 1 ng/ml", "result": "6.83 ± 0.48", "unit": "per 4 × 10^4 nuclears"}, {"measurement": "CFU-Sp per 4 × 10^4 nuclears", "setting": "[2]; Treamid 30 ng/ml", "result": "6.0 ± 0.36", "unit": "per 4 × 10^4 nuclears"}, {"measurement": "CFU-Sp per 4 × 10^4 nuclears", "setting": "[2]; Treamid 100 ng/ml", "result": "8.50 ± 0.42", "unit": "per 4 × 10^4 nuclears"}, {"measurement": "CFU-Sp per 4 × 10^4 nuclears", "setting": "[2]; Treamid 1000 ng/ml", "result": "11.67 ± 1.81", "unit": "per 4 × 10^4 nuclears"}, {"measurement": "increase of free testosterone in the blood serum in comparison with intact animals", "setting": "male C57BL/6 mice [3]; 10 mg/kg, Day 80", "result": 16, "unit": "%"}, {"measurement": "increase of free testosterone in the blood serum in comparison with the pathological control", "setting": "male C57BL/6 mice [3]; 10 mg/kg, Day 80", "result": 2, "unit": "times"}, {"measurement": "Free testosterone in the blood serum (pg/ml)", "setting": "male C57BL/6 mice [3]; Day 80, Treamid 10 mg/kg intragastrically Day 49-80", "result": "3.46 ± 1.87*• pg/ml"}, {"measurement": "fertility index relative to untreated metabolic disorders (pathological control)", "setting": "male C57BL/6 mice [3]; Treamid 10 mg/kg Day 49-80", "result": 1.8, "unit": "times"}, {"measurement": "Fertility index, %", "setting": "male C57BL/6 mice [3]; mating Day 70-80, Treamid 10 mg/kg Day 49-80", "result": "55*• %"}, {"measurement": "increase of the secretory activity of the microenvironment cells compared to the control", "setting": "male rats", "result": 80, "unit": "%"}]}
